# Where two headings read alike, the source gives them in different places.
# What was measured:
# [1] = test system: formalin test in rats; experiment: Formalin test in rats (automated flinch detection); assay type: in vivo; conditions: rat; for Phase 1 paw flinches: Phase I (0-9 mins); for Total Phase 2 paw flinches: Phase II (10-60 mins); for Phase 2a paw flinches: Phase IIA (10-40 mins); for Phase 2b paw flinches: Phase IIB (41-60 mins)
# Description: The formalin test in rats was performed as previously described (McNamara, 2007. Proc. Natl. Acad. Sci., vol 104, page 13525) using an automated flinch-detecting system (T. Yaksh, University of California at San Diego, La Jolla, Calif.). On the day of testing, a small metal band (0.5 g) was loosely placed around the right hind paw of a male Sprague-Dawley rat (average weight, ˜250 g). The rats were allowed to acclimate to a Plexiglas chamber for at least 30 min before testing. Formalin was then injected (50 μl of 2.5% formalin, diluted in saline) into the dorsal surface of the right hind paw of the rat, and the animal was put into a chamber of the automated formalin apparatus where movement of the formalin-injected paw was recorded. The number of paw flinches per minute was tallied for the next 60 minutes. The time interval phases were defined as follows: Phase I (0-9 mins), Phase II (10-60 mins), Phase IIA (10-40 mins), and Phase IIB (41-60 mins). The following compounds were administered 1 hour prior to formalin administration. Compound 52 from Table 1 was administered by oral gavage in 4% DMSO, 10% Solutol, 86% H2O. Gabapentin was administered subcutaneously in 0.9% NaCl (aq). 4.
# [2] = biological target: hNav1.7 (Homo sapiens (Human), UniProt Q15858); experiment: Nav1.7 potency, Patchliner automated patch clamp; assay type: cell-based; conditions: automated patchclamp
# Chain of hNav1.7 (Q15858 whole entry): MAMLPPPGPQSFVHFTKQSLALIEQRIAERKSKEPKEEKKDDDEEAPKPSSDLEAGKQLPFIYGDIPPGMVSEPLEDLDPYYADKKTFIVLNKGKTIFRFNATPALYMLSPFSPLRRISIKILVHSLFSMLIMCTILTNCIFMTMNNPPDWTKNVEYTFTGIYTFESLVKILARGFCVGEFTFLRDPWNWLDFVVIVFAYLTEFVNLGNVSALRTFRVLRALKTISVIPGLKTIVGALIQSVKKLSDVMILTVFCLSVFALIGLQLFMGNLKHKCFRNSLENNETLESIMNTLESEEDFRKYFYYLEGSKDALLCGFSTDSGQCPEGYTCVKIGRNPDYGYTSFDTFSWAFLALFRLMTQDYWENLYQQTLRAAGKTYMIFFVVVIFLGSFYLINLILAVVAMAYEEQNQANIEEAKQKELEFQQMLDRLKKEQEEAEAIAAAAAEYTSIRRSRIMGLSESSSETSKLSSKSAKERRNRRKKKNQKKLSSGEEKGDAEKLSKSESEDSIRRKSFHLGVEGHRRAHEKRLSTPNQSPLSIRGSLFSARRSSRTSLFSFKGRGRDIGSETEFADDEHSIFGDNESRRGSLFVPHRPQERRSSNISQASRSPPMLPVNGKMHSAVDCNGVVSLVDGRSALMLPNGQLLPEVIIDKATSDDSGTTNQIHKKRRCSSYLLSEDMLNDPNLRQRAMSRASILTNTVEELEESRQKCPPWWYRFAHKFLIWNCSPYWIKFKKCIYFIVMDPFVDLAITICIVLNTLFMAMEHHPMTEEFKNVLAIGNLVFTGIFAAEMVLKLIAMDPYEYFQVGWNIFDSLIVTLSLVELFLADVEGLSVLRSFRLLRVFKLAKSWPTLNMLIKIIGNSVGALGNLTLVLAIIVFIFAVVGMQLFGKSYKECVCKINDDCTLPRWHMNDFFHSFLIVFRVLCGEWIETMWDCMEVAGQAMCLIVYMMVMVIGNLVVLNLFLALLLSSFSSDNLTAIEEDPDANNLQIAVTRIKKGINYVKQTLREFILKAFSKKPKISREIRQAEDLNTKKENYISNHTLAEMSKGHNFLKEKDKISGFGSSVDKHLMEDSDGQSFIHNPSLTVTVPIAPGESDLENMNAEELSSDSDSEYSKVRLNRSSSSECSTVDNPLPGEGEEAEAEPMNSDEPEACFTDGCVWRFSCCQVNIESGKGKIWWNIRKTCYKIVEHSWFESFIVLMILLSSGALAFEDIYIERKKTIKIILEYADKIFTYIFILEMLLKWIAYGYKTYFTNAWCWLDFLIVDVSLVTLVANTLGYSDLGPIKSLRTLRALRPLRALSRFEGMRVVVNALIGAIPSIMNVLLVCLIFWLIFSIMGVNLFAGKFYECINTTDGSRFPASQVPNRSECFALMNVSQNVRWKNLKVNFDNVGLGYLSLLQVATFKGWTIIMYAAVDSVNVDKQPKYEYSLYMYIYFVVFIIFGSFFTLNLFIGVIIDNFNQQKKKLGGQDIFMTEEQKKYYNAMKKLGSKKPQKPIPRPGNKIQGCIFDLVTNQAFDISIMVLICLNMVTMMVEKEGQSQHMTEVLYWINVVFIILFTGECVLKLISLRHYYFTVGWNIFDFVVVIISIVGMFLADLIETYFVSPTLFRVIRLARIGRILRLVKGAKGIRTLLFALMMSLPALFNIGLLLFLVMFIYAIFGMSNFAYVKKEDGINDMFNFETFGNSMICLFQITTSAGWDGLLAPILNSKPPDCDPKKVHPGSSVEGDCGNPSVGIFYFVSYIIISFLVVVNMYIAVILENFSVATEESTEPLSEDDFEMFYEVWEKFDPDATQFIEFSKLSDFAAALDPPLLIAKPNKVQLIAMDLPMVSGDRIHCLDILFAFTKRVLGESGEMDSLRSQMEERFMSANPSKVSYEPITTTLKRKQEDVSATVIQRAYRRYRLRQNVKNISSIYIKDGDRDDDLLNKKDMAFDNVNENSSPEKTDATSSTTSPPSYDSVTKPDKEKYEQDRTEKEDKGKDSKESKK
# Chain of hNav1.7 (Q07699 19-218 partner): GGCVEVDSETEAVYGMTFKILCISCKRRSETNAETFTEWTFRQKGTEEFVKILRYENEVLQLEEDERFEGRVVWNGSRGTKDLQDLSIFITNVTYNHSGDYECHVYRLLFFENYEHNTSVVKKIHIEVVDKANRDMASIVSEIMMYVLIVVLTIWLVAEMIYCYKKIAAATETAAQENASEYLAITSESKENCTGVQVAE
# Description: The generation of a HEK 293F cell line stably expressing human Nav1.7/Navβ1 was achieved by co-transfecting human SCN9A and human SCN1B cDNAs, subcloned into plasmid vectors, utilizing standard transfection techniques. Clones were selected using appropriate selection agents (0.3 mg/mL Zeocin and 0.8 mg/mL Geneticin) and maintained in Dulbecco's Modified Eagle medium, 10% fetal bovine serum, 1% non-essential amino acids to ˜80% confluence at 37° C. in a humidified incubator with 95% atmosphere and 5% CO2.
# In some cases, the potency of compounds was measured using either the Patchliner automated patch clamp platform (Nanion) or manual patch clamp techniques. Both approaches allowed the compounds to be characterized based upon the ability of a compound to modulate use- and/or state-dependence. The potency data is tabulated in Table 3 and is represented by eight data fields. The first four fields represent potency data measured with the Patchliner automated platform under varying use- and state-dependent electrophysiology protocols similar to the Patch express protocols detailed above. The first data column describes the potency of compounds when the Nav1.7 channel is being repetitively activated at a 7 Hz hyperpolarization frequency (Table 3: hNav1.7: IC50 of inward current block at 7 Hz, Automated patchclamp). The second data column represents the potency at which 50% of the initial hyperpolarization pulse is inhibited by the compounds (Table 3: hNav1.7: IC50 of P1 block, Automated patchclamp). The third data column details the potency of compounds in their ability to block 50% of Nav1.7 channels when these channels are induced into the slow inactivated state (Table 3: hNav1.7: IC50 of slow inactivation block, Automated patchclamp). […] The next three data fields describe the data generated from manual patchclamp electrophysiology measurements using similar methods to those employed for automated patchclamp studies. […] The last column characterizes the state-dependence of compound inhibition. […]
# [3] = 3 mg/kg oral gavage 1 hour prior to formalin
# [4] = 10 mg/kg oral gavage 1 hour prior to formalin
# [5] = 30 mg/kg oral gavage 1 hour prior to formalin
# [6] = 100 mg/kg SC 1 hour prior to formalin
smiles,measurement,setting,value
"NC1(c2nc3cc(C(F)(F)F)cc(C(F)(F)F)c3[nH]2)Cc2ccccc2C1 [Compound 52, 2-(4,6-bis(trifluoromethyl)-1H-benzo[d]imidazol-2-yl)-2,3-dihydro-1H-inden-2-amine]",Phase 1 paw flinches,[1]; [3],345 ± 75
same,Total Phase 2 paw flinches,[1]; [3],1365 ± 174
same,Phase 2a paw flinches,[1]; [3],988 ± 139
same,Phase 2b paw flinches,[1]; [3],377 ± 79
same,Phase 1 paw flinches,[1]; [4],315 ± 58
same,Total Phase 2 paw flinches,[1]; [4],962 ± 189
same,Phase 2a paw flinches,[1]; [4],758 ± 199
same,Phase 2b paw flinches,[1]; [4],204 ± 66
same,Phase 1 paw flinches,[1]; [5],333 ± 75
same,Total Phase 2 paw flinches,[1]; [5],853 ± 259
same,Phase 2a paw flinches,[1]; [5],706 ± 261
same,Phase 2b paw flinches,[1]; [5],147 ± 101
"N[C@H](Cc1cccc(C(F)(F)F)c1)C(=O)NCc1nc2c(C(F)(F)F)cc(C(F)(F)F)cc2[nH]1 [Compound 75, (R)-2-amino-N-((4,6-bis(trifluoromethyl)-1H-benzo[d]imidazol-2-yl)methyl)-3-(3-(trifluoromethyl)phenyl) propanamide]",IC50,"[2]; 7 Hz, read-out: Nav1.7 IC50 INWARD CURRENT BLOCK (nM) (7 Hz, Automated Patchclamp)",15000 nM
same,IC50,"[2]; initial pulse (P1), read-out: Nav1.7 IC50 P1 BLOCK (nM) (Automated Patchclamp)",15000 nM
same,IC50,"[2]; slow inactivated state, read-out: Nav1.7 IC50 SLOW INACTIVATION BLOCK (nM) (Automated Patchclamp)",15000 nM
"NCC1(CC(=O)O)CCCCC1 [Gabapentin, reference compound]",Phase 1 paw flinches,[1]; [6],320 ± 58
same,Total Phase 2 paw flinches,[1]; [6],562 ± 213
same,Phase 2a paw flinches,[1]; [6],486 ± 202
same,Phase 2b paw flinches,[1]; [6],77 ± 47

# Source: US10208023B2, “Heterocyclic inhibitors of the sodium channel” (priority 2013, dated 2019)
